Patent publication US10717733B2, “Haloallylamine indole and azaindole derivative inhibitors of lysyl oxidases and uses thereof” (PHARMAXIS LTD., priority 2016, dated 2020)
Counter-ions that a name gives are not always drawn.

Columns and labels:
Assay type in all cases: biochemical
[1] = biological target: Human LOXL2 (Homo sapiens (Human), UniProt Q9Y4K0); assay: LOXL2 inhibition, peroxidase-coupled Amplex Red amine oxidase assay; settings: 30 min preincubation at 37° C., putrescine substrate
Description: (§1) Method to Determine the Ability of Compounds of the Invention to Inhibit LOX and LOXL1-4 from Different Sources
(§2) Lysyl oxidase (LOX) is an extracellular copper dependent enzyme which oxidizes peptidyl lysine and hydroxylysine residues in collagen and lysine residues in elastin to produce peptidyl alpha-aminoadipic-delta-semialdehydes. […] There are five LOX family members; these are LOX, LOXL1, LOXL2, LOXL3 and LOXL4. LOX and LOXL family members can be acquired as recombinant active proteins from commercial sources, or extracted from animal tissues like bovine aorta, tendons, pig skin; or prepared from cell cultures. The inhibitory effects of the compounds of the present invention were tested against the given LOX-LOXL preparation using a high-throughput coupled colorimetric method (Holt A. and Palcic M., A peroxidase-coupled continuous absorbance plate-reader assay for flavin monoamine oxidases, copper-containing amine oxidases and related enzymes. Nat. Protoc. 2006; 1: 2498-2505). The assay was developed using either 384 or 96 well format. Briefly, in a standard 384 well plate assay 25 μL of a dilution of any of the isoenzymes and orthologues in 1.2 M urea, 50 mM sodium borate buffer (pH 8.2) were added into each well in the presence of 1 μM mofegiline and 0.5 mM pargyline (to inhibit SSAO and MAO-B and MAO-A, respectively). Test compounds were dissolved in DMSO and tested in a Concentration Response Curve (CRC) with 11 data points, typically in the micromolar or nanomolar range after incubation with the enzyme for 30 min at 37° C. Twenty five L of a reaction mixture containing twice the KM concentration of putrescine (Sigma Aldrich, e.g. 20 mM for LOX, or 10 mM for LOXL2 and LOXL3), 120 μM Amplex Red (Sigma Aldrich) and 1.5 U/mL horseradish peroxidase (Sigma Aldrich) prepared in 1.2 M urea, 50 mM sodium borate buffer (pH 8.2) were then added to the corresponding wells. The above volumes were doubled in the case of 96 wells plate. The fluorescence (RFU) was read every 2.5 min for 30 min at a range of temperatures from 37° to 45° C., excitation 565 nm and emission 590 (Optima; BMG labtech). The slope of the kinetics for each well was calculated using MARS data analysis software (BMG labtech) and this value was used to deduce the IC50 value (Dotmatics).

[2] = biological target: Bovine LOX (Bos taurus (Bovine), UniProt P33072); assay: LOX inhibition, peroxidase-coupled Amplex Red amine oxidase assay; settings: 30 min preincubation at 37° C., putrescine substrate
Bovine LOX, sequence (P33072 170-418): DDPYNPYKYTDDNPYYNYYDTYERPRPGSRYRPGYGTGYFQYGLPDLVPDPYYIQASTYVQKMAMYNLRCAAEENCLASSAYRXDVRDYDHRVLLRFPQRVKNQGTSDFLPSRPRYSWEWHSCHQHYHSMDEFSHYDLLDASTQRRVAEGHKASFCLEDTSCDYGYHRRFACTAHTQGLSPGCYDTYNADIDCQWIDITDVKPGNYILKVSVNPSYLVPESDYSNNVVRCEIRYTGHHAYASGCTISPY
Description: as §1
as §2, with “Test compounds were dissolved in DMSO and tested in a Concentration Response Curve (CRC) with 11 data points, typically in the micromolar or nanomolar range after incubation with the enzyme for 30 min at 37° C.” left out

[3] = biological target: human recombinant SSAO/VAP-1 (Homo sapiens (Human), UniProt Q16853); assay: Inhibition of human recombinant SSAO/VAP-1 amine oxidase activity; settings: 30 min preincubation at 37° C., 600 μM benzylamine
human recombinant SSAO/VAP-1, sequence (Q16853 34-763): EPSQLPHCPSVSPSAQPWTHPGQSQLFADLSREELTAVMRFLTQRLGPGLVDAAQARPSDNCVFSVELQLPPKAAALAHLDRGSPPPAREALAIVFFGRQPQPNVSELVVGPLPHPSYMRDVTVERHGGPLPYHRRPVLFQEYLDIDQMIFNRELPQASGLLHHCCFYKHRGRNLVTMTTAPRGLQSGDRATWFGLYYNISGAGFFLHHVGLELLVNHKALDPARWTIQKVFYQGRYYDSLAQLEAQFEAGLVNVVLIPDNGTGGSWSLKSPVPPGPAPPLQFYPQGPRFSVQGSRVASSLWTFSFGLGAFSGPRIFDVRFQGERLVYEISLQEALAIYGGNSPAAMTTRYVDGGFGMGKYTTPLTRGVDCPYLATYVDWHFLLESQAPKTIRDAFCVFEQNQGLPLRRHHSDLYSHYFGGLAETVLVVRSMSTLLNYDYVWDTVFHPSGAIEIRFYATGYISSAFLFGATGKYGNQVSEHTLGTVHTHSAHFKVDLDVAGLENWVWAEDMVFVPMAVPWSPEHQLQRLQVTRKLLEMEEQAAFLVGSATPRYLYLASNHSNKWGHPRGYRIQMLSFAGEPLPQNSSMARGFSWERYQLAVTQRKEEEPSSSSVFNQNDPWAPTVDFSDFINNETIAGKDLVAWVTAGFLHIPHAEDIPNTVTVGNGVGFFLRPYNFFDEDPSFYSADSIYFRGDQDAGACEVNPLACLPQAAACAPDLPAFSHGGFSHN
Procedure: Method to Determine the Ability of Compounds of Formula I to Inhibit Human Recombinant SSAO/VAP-1
Human recombinant SSAO/VAP-1 amine oxidase activity was determined using the coupled colorimetric method as described for monoamine oxidase, copper-containing amine oxidases and related enzymes (Holt A. and Palcic M., A peroxidase-coupled continuous absorbance plate-reader assay for flavin monoamine oxidases, copper-containing amine oxidases and related enzymes. Nat Protoc 2006; 1: 2498-2505). Briefly, a cloned cDNA template corresponding to residues 34-763 of human SSAO/VAP-1, and incorporating a mouse Ig kappa (κ) signal sequence, N-terminal flag epitope tag and tobacco etch virus (TEV) cleavage site, was assembled in a mammalian expression vector (pLO-CMV) by Geneart AG. This vector containing human SSAO/VAP-1 residues was transfected into CHO-K1 glycosylation mutant cell line, Lec 8. A clone stably expressing human SSAO/VAP-1 was isolated and cultured in large scale. Active human SSAO/VAP-1 was purified and recovered using immunoaffinity chromatography. This was used as the source for SSAO/VAP-1 activity. A high-throughput colorimetric assay was developed using either 96 or 384 well format. Briefly, in a standard 96 well plate assay 50 μL of purified human SSAO/VAP-1 (0.25 μg/mL) in 0.1 M sodium phosphate buffer (pH 7.4) was added into each well. Test compounds were dissolved in DMSO and tested in a Concentration Response Curve (CRC) with 4-11 data points, typically in the micromolar or nanomolar range after incubation with human SSAO/VAP-1 for 30 min at 37° C. After 30 min incubation, 50 μL of the reaction mixture containing 600 μM benzylamine (Sigma Aldrich), 120 μM Amplex Red (Sigma Aldrich) and 1.5 U/mL horseradish peroxidase (Sigma Aldrich) prepared in 0.1 M sodium phosphate buffer (pH 7.4) were added to the corresponding well. The fluorescence unit (RFU) was read every 2.5 min for 30 min at 37° C. excitation 565 nm and emission 590 (Optima; BMG labtech). The slope of the kinetics for each well was calculated using MARS data analysis software (BMG labtech) and this value was used to deduce the IC50 value (Dotmatics).

[4] = biological target: Recombinant human MAO-B (Homo sapiens (Human), UniProt P27338); assay: Inhibition of human recombinant MAO-B; settings: benzylamine 100 μM
Recombinant human MAO-B, sequence (P27338 whole entry): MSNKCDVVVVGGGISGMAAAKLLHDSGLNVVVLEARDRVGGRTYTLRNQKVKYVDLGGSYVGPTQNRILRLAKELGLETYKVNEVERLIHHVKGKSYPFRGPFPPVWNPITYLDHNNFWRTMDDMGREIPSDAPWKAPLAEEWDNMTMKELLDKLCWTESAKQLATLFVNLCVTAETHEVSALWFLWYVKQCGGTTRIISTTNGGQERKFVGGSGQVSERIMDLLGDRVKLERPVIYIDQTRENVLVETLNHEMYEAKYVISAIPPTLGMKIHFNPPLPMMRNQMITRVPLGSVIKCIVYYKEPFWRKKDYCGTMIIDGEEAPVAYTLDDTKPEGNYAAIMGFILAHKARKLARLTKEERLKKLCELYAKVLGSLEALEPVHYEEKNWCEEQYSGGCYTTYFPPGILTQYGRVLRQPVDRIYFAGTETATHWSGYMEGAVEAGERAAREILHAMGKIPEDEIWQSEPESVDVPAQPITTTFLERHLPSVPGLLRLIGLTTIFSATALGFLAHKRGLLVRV
Procedure: Method to Determine the Ability of Compounds of Formula I to Inhibit Human Recombinant MAO-B
The specificity of the compounds of this invention was tested by determining their ability to inhibit MAO-B activities in vitro. Recombinant human MAO-B (0.06 mg/mL; Sigma Aldrich) was used as source of MAO-B enzyme activities. The assay was performed in a similar way as for human SSAO/VAP-1 (Example 66) except, the substrate benzylamine was used at 100 μM.

Human LOXL2, sequence (Q9Y4K0 26-774): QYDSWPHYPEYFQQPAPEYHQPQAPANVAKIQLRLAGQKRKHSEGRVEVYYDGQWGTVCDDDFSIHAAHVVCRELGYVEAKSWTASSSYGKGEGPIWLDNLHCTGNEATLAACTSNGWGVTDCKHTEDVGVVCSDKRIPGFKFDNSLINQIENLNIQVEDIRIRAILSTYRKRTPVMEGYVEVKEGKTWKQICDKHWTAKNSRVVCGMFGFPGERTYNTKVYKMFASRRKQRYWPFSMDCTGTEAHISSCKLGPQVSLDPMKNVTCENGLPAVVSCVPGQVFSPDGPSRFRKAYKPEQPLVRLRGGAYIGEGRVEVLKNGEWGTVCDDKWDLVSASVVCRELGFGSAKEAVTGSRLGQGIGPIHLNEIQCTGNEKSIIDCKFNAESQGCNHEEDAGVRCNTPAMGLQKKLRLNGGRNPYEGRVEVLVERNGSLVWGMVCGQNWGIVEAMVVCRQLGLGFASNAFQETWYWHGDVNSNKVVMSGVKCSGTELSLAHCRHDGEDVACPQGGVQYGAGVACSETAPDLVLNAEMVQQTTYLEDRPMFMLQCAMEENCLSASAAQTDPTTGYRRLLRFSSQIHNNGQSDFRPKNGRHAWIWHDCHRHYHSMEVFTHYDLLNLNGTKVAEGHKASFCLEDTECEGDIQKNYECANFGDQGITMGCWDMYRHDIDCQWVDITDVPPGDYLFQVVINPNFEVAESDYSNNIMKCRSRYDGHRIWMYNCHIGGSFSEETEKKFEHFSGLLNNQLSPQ

| SMILES | IC50 [1] [nM] | IC50 [2] [nM] | IC50 [3] [nM] | IC50 [4] [nM] |
| --- | --- | --- | --- | --- |
| Cc1c(-c2ccc(F)cc2)c2cc(S(C)(=O)=O)ccc2n1C/C(F)=C/CN [Compound 93, (Z)-3-fluoro-4-(3-(4-fluorophenyl)-2-methyl-5-(methylsulfonyl)-1H-indol-1-yl)but-2-en-1-amine] | < 300 | > 300 | > 3000 | > 3000 |
| COc1ccc2c(n1)c(-c1cccc(S(C)(=O)=O)c1)c(C)n2C/C(F)=C/CN [Compound 69, (Z)-3-fluoro-4-(5-methoxy-2-methyl-3-(3-(methylsulfonyl)phenyl)-1H-pyrrolo[3,2-b]pyridin-1-yl)but-2-en-1-amine Dihydrochloride] | < 300 | > 300 | > 3000 | > 3000 |
| COc1ccc2c(c1)c(-c1cccc(S(=O)(=O)N(C)C)c1)c(C)n2C/C(F)=C/CN [Compound 49, (Z)-3-(1-(4-amino-2-fluorobut-2-en-1-yl)-5-methoxy-2-methyl-1H-indol-3-yl)-N,N-dimethylbenzenesulfonamide] | < 300 | > 300 | > 3000 | > 3000 |
| Cc1c(-c2cccc(S(=O)(=O)N(C)C)c2)c2cccc(C(=O)O)c2n1C/C(F)=C/CN [Compound 48, (Z)-1-(4-amino-2-fluorobut-2-en-1-yl)-3-(3-(N,N-dimethylsulfamoyl)phenyl)-2-methyl-1H-indole-7-carboxylic acid] | < 300 | > 300 | > 3000 | > 3000 |
| CCOC(=O)c1cccc(-c2c(C)n(C/C(F)=C/CN)c3ccc(S(=O)(=O)N(C)C)cc23)c1 [Compound 33, ethyl (Z)-3-(1-(4-amino-2-fluorobut-2-en-1-yl)-5-(N,N-dimethylsulfamoyl)-2-methyl-1H-indol-3-yl)benzoate] | < 300 | > 300 | > 3000 | > 3000 |
| Cc1c(-c2cccnc2)c2cc(Cl)ccc2n1C/C(F)=C/CN [Compound 77, (Z)-4-(5-chloro-2-methyl-3-(pyridin-3-yl)-1H-indol-1-yl)-3-fluorobut-2-en-1-amine] | < 300 | > 300 | > 3000 | > 3000 |
| Cc1c(-c2cccc(S(=O)(=O)N(C)C)c2)c2cc(C(=O)O)c(F)cc2n1C/C(F)=C/CN [Compound 21, (Z)-1-(4-amino-2-fluorobut-2-en-1-yl)-3-(3-(N,N-dimethylsulfamoyl)phenyl)-6-fluoro-2-methyl-1H-indole-5-carboxylic acid] | < 300 | > 300 | > 3000 | > 3000 |
| CNS(=O)(=O)c1cncc(-c2c(C)n(C/C(F)=C/CN)c3ccc(Cl)cc23)c1 [Compound 70, (Z)-5-(1-(4-amino-2-fluorobut-2-en-1-yl)-5-chloro-2-methyl-1H-indol-3-yl)-N-methylpyridine-3-sulfonamide] | < 300 | > 300 | > 3000 | > 3000 |
| Cc1c(-c2cncc(S(=O)(=O)N(C)C)c2)c2cccc(Cl)c2n1C/C(F)=C/CN [Compound 74, (Z)-5-(1-(4-amino-2-fluorobut-2-en-1-yl)-7-chloro-2-methyl-1H-indol-3-yl)-N,N-dimethylpyridine-3-sulfonamide] | < 300 | > 300 | > 3000 | > 3000 |
| Cc1ccc(S(=O)(=O)N(C)C)cc1-c1c(C)n(C/C(F)=C/CN)c2ccc(C(=O)O)cc12 [Compound 20, (Z)-1-(4-amino-2-fluorobut-2-en-1-yl)-3-(5-(N,N-dimethylsulfamoyl)-2-methylphenyl)-2-methyl-1H-indole-5-carboxylic acid] | < 300 | > 300 | > 3000 | > 3000 |
| Cc1c(-c2cccc(S(=O)(=O)N(C)C)c2)c2cc(C(F)F)ccc2n1C/C(F)=C/CN [Compound 59, (Z)-3-(1-(4-amino-2-fluorobut-2-en-1-yl)-5-(difluoromethyl)-2-methyl-1H-indol-3-yl)-N,N-dimethylbenzene-sulfonamide] | < 300 | > 300 | > 3000 | > 3000 |
| Cc1c(-c2cccc(C(=O)O)c2)c2cc(S(=O)(=O)N(C)C)ccc2n1C/C(F)=C/CN [Compound 34, (Z)-3-(1-(4-amino-2-fluorobut-2-en-1-yl)-5-(N,N-dimethylsulfamoyl)-2-methyl-1H-indol-3-yl)benzoic acid] | < 300 | > 300 | > 3000 | > 3000 |
| Cc1cc(-c2c(C)n(C/C(F)=C/CN)c3ccc(S(C)(=O)=O)cc23)ccn1 [Compound 94, (Z)-3-fluoro-4-(2-methyl-3-(2-methylpyridin-4-yl)-5-(methylsulfonyl)-1H-indol-1-yl)but-2-en-l-amine, Dihydrochloride] | < 300 | > 300 | > 3000 | > 3000 |
| Cc1c(-c2cccc(S(=O)(=O)N(C)C)c2)c2cc(C(=O)NC(C)C)ccc2n1C/C(F)=C/CN [Compound 35, (Z)-1-(4-amino-2-fluorobut-2-en-1-yl)-3-(3-(N,N-dimethylsulfamoyl)phenyl)-N-isopropyl-2-methyl-1H-indole-5-carboxamide] | < 300 | > 300 | > 3000 | > 3000 |
